Earlier results, collected in article PMC11891579, “Fluorescent PyrAte-(S)-citalopram conjugates enable imaging of the serotonin transporter in living tissue” (Chemical Science, 2025).

Test system: organic cation transporter 3 (OCT3)
Design: method as in PMID 34884800
Conditions: cited from earlier work

## CN(C)CCC[C@@]1(c2ccc(F)cc2)OCc2cc(C#N)ccc21 [(S)-citalopram]
  affinity towards OCT3: does not display affinity towards OCT3
